# Assay results published in BigSolDB 2.1.
structure (smiles),measurement,setting,value
O=C1NS(=O)(=O)c2ccccc21,solubility (mole fraction),"in acetone, 278.15 K",0.0222
same,solubility (mole fraction),"in acetone, 283.15 K",0.025
same,solubility (mole fraction),"in acetone, 288.15 K",0.0286
same,solubility (mole fraction),"in acetone, 293.15 K",0.0326
same,solubility (mole fraction),"in acetone, 298.15 K",0.0374
same,solubility (mole fraction),"in acetone, 303.15 K",0.0422
same,solubility (mole fraction),"in acetone, 308.15 K",0.0484
same,solubility (mole fraction),"in acetone, 313.15 K",0.0554
same,solubility (mole fraction),"in acetone, 318.15 K",0.0635
same,solubility (mole fraction),"in acetone, 323.15 K",0.071
same,solubility (mole fraction),"in ethanol, 278.15 K",0.00486
same,solubility (mole fraction),"in ethanol, 283.15 K",0.00578
same,solubility (mole fraction),"in ethanol, 288.15 K",0.00686
same,solubility (mole fraction),"in ethanol, 293.15 K",0.00814
same,solubility (mole fraction),"in ethanol, 298.15 K",0.00964
same,solubility (mole fraction),"in ethanol, 303.15 K",0.0114
same,solubility (mole fraction),"in ethanol, 308.15 K",0.0134
same,solubility (mole fraction),"in ethanol, 313.15 K",0.0158
same,solubility (mole fraction),"in ethanol, 318.15 K",0.019
same,solubility (mole fraction),"in ethanol, 323.15 K",0.0231
same,solubility (mole fraction),"in ethyl acetate, 278.15 K",0.00883
same,solubility (mole fraction),"in ethyl acetate, 283.15 K",0.0111
same,solubility (mole fraction),"in ethyl acetate, 288.15 K",0.0139
same,solubility (mole fraction),"in ethyl acetate, 293.15 K",0.0169
same,solubility (mole fraction),"in ethyl acetate, 298.15 K",0.0203
same,solubility (mole fraction),"in ethyl acetate, 303.15 K",0.0241
same,solubility (mole fraction),"in ethyl acetate, 308.15 K",0.0287
same,solubility (mole fraction),"in ethyl acetate, 313.15 K",0.0342
same,solubility (mole fraction),"in ethyl acetate, 318.15 K",0.0401
same,solubility (mole fraction),"in ethyl acetate, 323.15 K",0.0474
same,solubility (mole fraction),"in isobutanol, 278.15 K",0.00181
same,solubility (mole fraction),"in isobutanol, 283.15 K",0.00222
same,solubility (mole fraction),"in isobutanol, 288.15 K",0.00279
same,solubility (mole fraction),"in isobutanol, 293.15 K",0.00355
same,solubility (mole fraction),"in isobutanol, 298.15 K",0.00433
same,solubility (mole fraction),"in isobutanol, 303.15 K",0.00538
same,solubility (mole fraction),"in isobutanol, 308.15 K",0.00654
same,solubility (mole fraction),"in isobutanol, 313.15 K",0.00791
same,solubility (mole fraction),"in isobutanol, 318.15 K",0.00953
same,solubility (mole fraction),"in isobutanol, 323.15 K",0.0114
same,solubility (mole fraction),"in isopropanol, 278.15 K",0.00382
same,solubility (mole fraction),"in isopropanol, 283.15 K",0.0045
same,solubility (mole fraction),"in isopropanol, 288.15 K",0.00532
same,solubility (mole fraction),"in isopropanol, 293.15 K",0.00632
same,solubility (mole fraction),"in isopropanol, 298.15 K",0.00752
same,solubility (mole fraction),"in isopropanol, 303.15 K",0.00895
same,solubility (mole fraction),"in isopropanol, 308.15 K",0.0106
same,solubility (mole fraction),"in isopropanol, 313.15 K",0.0126
same,solubility (mole fraction),"in isopropanol, 318.15 K",0.015
same,solubility (mole fraction),"in isopropanol, 323.15 K",0.0181
same,solubility (mole fraction),"in methanol, 278.15 K",0.00542
same,solubility (mole fraction),"in methanol, 283.15 K",0.00665
same,solubility (mole fraction),"in methanol, 288.15 K",0.00806
same,solubility (mole fraction),"in methanol, 293.15 K",0.00969
same,solubility (mole fraction),"in methanol, 298.15 K",0.0115
same,solubility (mole fraction),"in methanol, 303.15 K",0.0135
same,solubility (mole fraction),"in methanol, 308.15 K",0.0157
same,solubility (mole fraction),"in methanol, 313.15 K",0.0185
same,solubility (mole fraction),"in methanol, 318.15 K",0.0217
same,solubility (mole fraction),"in methanol, 323.15 K",0.0257
same,solubility (mole fraction),"in n-propanol, 278.15 K",0.00311
same,solubility (mole fraction),"in n-propanol, 283.15 K",0.00369
same,solubility (mole fraction),"in n-propanol, 288.15 K",0.00439
same,solubility (mole fraction),"in n-propanol, 293.15 K",0.00526
same,solubility (mole fraction),"in n-propanol, 298.15 K",0.00621
same,solubility (mole fraction),"in n-propanol, 303.15 K",0.00756
same,solubility (mole fraction),"in n-propanol, 308.15 K",0.00902
same,solubility (mole fraction),"in n-propanol, 313.15 K",0.0109
same,solubility (mole fraction),"in n-propanol, 318.15 K",0.0129
same,solubility (mole fraction),"in n-propanol, 323.15 K",0.0157
